Results as given in patent publication US20090221643A1, “4-PHENYL-3-(2-PROPYLSULFONYLAMINO) TETRAHYDROFURAN DERIVATIVES WHICH POTENTIATE GLUTAMATE RECEPTORS AND ARE USEFUL IN THE TREATMENT OF SCHIZOPHRENIA” (priority 2006, published 2009).

The compounds below were run against T1, human GluR2 flip (unedited) AMPA receptor subunit (Homo sapiens, UniProt P42262) (assay: Calcium influx fluorescence assay (FLUO4, FLIPR), potentiation of glutamate response). Conditions: HEK293; HEK 293 cells expressing human GluR2 flip (unedited); fluorescence increase relative to that induced by cyclothiazide at maximum response; read-out: activity relative to cyclothiazide (at its maximal response).
T1 construct: expressed in transfected cells
Assay type: cell-based
Experimental: The ability of the compounds of the invention to potentiate glutamate receptor-mediated response may be determined a) by using fluorescent calcium-indicator dyes such as FLUO4 and additionally b) by measuring glutamate-evoked current recorded from human GluR2 flip unedited HEK293 cells.
384 well plates are prepared containing confluent monolayer of HEK 293 cells either stably expressing or transiently transfected with human GluR2 flip (unedited) AMPA receptor subunit. These cells form functional homotetrameric AMPA receptors. The tissue culture medium in the wells are discarded and the wells are each washed three times with standard buffer (80 μL) for the stable cell line (145 mM NaCl, 5 mM KCl, 1 mM MgCl2, 2 mM CaCl2, 20 mM N-[2-hydroxyethyl]-piperazine-N-[2-ethanesulfonic acid (HEPES), 5.5 mM glucose, pH 7.3) or with a Na-free buffer for the transient transfected cells (145 mM N-methyl-glucamine instead of NaCl). The plates are then incubated for 60 minutes in the dark with 2 μM FLUO4-AM dye (20 μL) (Molecular Probes, Netherlands) at room temperature to allow cell uptake of the FLUO-4AM, which is then converted to FLUO-4 by intracellular esterases which is unable to leave the cell. After incubation each well is washed three times with buffer (80 μL) (30 μL of buffer remained in each well after washing).
Compounds of the invention (or reference compounds such as cyclothiazide) are dissolved in dimethylsulfoxide (DMSO) at a stock concentration of 10 mM. These solutions are further diluted with DMSO using a Biomek FX (Beckman Coulter) in a 384 compound plate. Each dilution (1 μL) is transferred to another compound plate and buffer (50 μL) is added. An agonist stimulus (glutamate) plate is prepared by dissolving sodium glutamate in water to give a concentration of 100 mM. This solution is diluted with buffer to give a final concentration of 500 μM and dispensed into another 384-well plate (50 μL/well) using a Multidrop (Thermolabsystems).
The cell plate is then transferred into a fluorescence imaging plate based reader [such as the FLIPR384 (Molecular Devices)]. A baseline fluorescence reading is taken over a 10 to 240 second period, and then 10 μL from each plate containing a compound of the invention made up in standard buffer solution (in a concentration range from 100 μM to 10 μM) is added (to give a final concentration in the range 30 μM to 3 μM). The fluorescence is read over 5 minute period. 500 μM glutamate solution (10 μL) is added (to give a final concentration of 100 μM). The fluorescence is then read over a 4 minute period. The activities of the compounds of the invention and reference compounds are determined by measuring peak fluorescence after the last addition. The activity is also expressed relative to the fluorescence increase induced by cyclothiazide at their maximum response (i.e. greater than 30 μM).
The assay described above is believed to have an effective limit of detection of a pEC50 in the region of 3.5-4.0 due to the limitations of compound solubility. The pEC50 result is generally considered to be accurate +/−0.3.

T1 sequence (P42262 25-883 isoform P42262-2 limits assumed): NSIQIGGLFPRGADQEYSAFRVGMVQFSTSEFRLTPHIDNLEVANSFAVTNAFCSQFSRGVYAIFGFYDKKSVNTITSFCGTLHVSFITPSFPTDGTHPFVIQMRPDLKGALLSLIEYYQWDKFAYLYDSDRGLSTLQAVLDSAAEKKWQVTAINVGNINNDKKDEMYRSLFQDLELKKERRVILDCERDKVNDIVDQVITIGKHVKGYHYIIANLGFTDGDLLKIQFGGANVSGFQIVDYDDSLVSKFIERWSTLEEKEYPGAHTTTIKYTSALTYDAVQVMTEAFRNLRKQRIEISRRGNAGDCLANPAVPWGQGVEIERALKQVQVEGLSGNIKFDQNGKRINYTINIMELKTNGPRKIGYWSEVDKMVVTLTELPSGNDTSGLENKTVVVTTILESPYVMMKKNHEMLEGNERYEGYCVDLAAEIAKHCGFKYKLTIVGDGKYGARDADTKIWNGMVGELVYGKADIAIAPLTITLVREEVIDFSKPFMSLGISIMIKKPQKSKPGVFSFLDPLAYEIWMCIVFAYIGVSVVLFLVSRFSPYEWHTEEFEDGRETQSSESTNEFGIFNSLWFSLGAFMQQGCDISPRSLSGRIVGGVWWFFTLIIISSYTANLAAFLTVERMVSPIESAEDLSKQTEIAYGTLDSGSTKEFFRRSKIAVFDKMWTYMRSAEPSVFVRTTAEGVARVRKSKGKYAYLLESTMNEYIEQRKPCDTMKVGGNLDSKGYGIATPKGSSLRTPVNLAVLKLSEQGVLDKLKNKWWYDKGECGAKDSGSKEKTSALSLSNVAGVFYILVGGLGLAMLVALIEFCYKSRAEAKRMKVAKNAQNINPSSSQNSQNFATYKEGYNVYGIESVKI

Emax, ≥ 50%:
Cc1cncc(-c2ccc([C@H]3COC[C@H]3NS(=O)(=O)C(C)C)cc2)c1 (racemic) [Example 6, N-{cis-4-[4-(5-methyl-3-pyridinyl)phenyl]tetrahydro-3-furanyl}-2-propanesulfonamide]
Cc1ccc(-c2ccc([C@H]3COC[C@H]3NS(=O)(=O)C(C)C)cc2)cn1 (racemic) [Example 2, N-{cis-4-[4-(6-methyl-3-pyridinyl)phenyl]tetrahydro-3-furanyl}-2-propanesulfonamide]
CC(C)S(=O)(=O)N[C@@H]1COC[C@@H]1c1ccc(-c2ccc(F)cn2)cc1 (racemic) [Example 3, N-{cis-4-[4-(5-fluoro-2-pyridinyl)phenyl]tetrahydro-3-furanyl}-2-propanesulfonamide]
CC(C)S(=O)(=O)N[C@@H]1COC[C@@H]1c1ccc(-c2ccc(F)cc2)cc1 (racemic) [Example 7, N-[cis-4-(4′-fluoro-4-biphenylyl)tetrahydro-3-furanyl]-2-propanesulfonamide]
CC(C)S(=O)(=O)N[C@@H]1COC[C@@H]1c1ccc(-c2cccs2)cc1 (racemic) [Example 12, N-{cis-4-[4-(2-thienyl)phenyl]tetrahydro-3-furanyl}-2-propanesulfonamide]
CC(C)S(=O)(=O)N[C@@H]1COC[C@@H]1c1ccc(-c2cncc(F)c2)cc1 (racemic) [Example 4, N-{cis-4-[4-(5-fluoro-3-pyridinyl)phenyl]tetrahydro-3-furanyl}-2-propanesulfonamide]
CC(=O)c1cccc(-c2ccc([C@H]3COC[C@H]3NS(=O)(=O)C(C)C)cc2)c1 (racemic) [Example 9, N-[cis-4-(3′-acetyl-4-biphenylyl)tetrahydro-3-furanyl]-2-propanesulfonamide]
CC(C)S(=O)(=O)N[C@@H]1COC[C@@H]1c1ccc(-c2ccc(C#N)cc2)cc1 (racemic) [Example 8, N-[cis-4-(4′-cyano-4-biphenylyl)tetrahydro-3-furanyl]-2-propanesulfonamide]
CC(C)S(=O)(=O)N[C@@H]1COC[C@@H]1c1ccc(-c2ccc(F)nc2)cc1 (racemic) [Example 1, N-{cis-4-[4-(6-fluoro-3-pyridinyl)phenyl]tetrahydro-3-furanyl}-2-propanesulfonamide]
CC(C)S(=O)(=O)N[C@@H]1COC[C@@H]1c1ccc(-c2ccc(Cl)cn2)cc1 (racemic) [Example 5, N-{cis-4-[4-(5-chloro-2-pyridinyl)phenyl]tetrahydro-3-furanyl}-2-propanesulfonamide]
CC(C)S(=O)(=O)N[C@@H]1COC[C@@H]1c1ccc(-c2ccc3c(c2)OCO3)cc1 (racemic) [Example 10, N-{cis-4-[4-(1,3-benzodioxol-5-yl)phenyl]tetrahydro-3-furanyl}-2-propanesulfonamide]
CC(C)S(=O)(=O)N[C@@H]1COC[C@@H]1c1ccc(-c2ccsc2)cc1 (racemic) [Example 11, N-{cis-4-[4-(3-thienyl)phenyl]tetrahydro-3-furanyl}-2-propanesulfonamide]
